Data published in patent US20250353891A1 (MEDIMMUNE LIMITED, priority 2022, published 2025).
Starred links: 1 amine or outer side, 2 acyl side, 3 side chain; linkers in the order of their positions; H or OH if unused. Non-standard residues stand in square brackets, D forms with d. Residues, ends and D or L forms follow the SMILES beside them. Groups on a side chain read outwards from the residue. *: point of attachment. C20 diacid = O=C(O)CCCCCCCCCCCCCCCCCCC(=O)*; C18 diacid = O=C(O)CCCCCCCCCCCCCCCCC(=O)*; γGlu = O=C(O)[C@H](CCC(=O)[*:2])N[*:1]; αMeF = C[C@](N)(Cc1ccccc1)C(=O)O; AEEA = NCCOCCOCC(=O)O; Aib = CC(C)(N)C(=O)O

Experiments:
[1] = target: human GLP-1 receptor (hGLP-1R) (Homo sapiens, UniProt P43220); assay: cAMP production (HTRF) in CHO cells expressing hGLP-1R; type: cell-based; parameters: expressed in transfected cells; settings: for EC50: Table 7, peptides modified at position 20, cAMP in CHO hGLP-1R cells, geometric mean, read-out: hGLP-1R EC50; for % Relative Potency Ratio: Table 7, % GLP-1R activity relative to GLP-1 / % GlucR activity relative to glucagon
human GLP-1 receptor (hGLP-1R), sequence (P43220 24-463): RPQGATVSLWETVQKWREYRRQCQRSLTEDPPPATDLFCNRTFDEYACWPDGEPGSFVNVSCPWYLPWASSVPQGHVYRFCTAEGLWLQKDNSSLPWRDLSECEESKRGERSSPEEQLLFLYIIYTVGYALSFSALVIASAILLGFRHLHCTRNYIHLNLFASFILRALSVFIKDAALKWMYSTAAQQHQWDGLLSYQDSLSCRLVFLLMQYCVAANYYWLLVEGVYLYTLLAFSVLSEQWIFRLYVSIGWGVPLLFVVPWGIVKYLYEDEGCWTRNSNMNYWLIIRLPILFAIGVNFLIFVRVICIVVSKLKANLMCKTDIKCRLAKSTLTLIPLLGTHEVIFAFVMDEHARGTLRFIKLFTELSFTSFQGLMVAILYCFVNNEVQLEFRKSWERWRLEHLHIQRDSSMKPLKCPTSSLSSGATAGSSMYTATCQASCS
Procedure, shortened: (§1)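 Cells were resuspended in assay buffer at batch-optimized density, typically 1×10^5 cells/mL for hGLP-1R and 2×10^5 cells/mL for hGCGR. After 30 min incubation at room temperature with compound, cAMP was measured by two-step HTRF. EC50 values came from 4-parameter logistic fits of % Delta F.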

[2] = target: human glucagon receptor (hGCGR) (Homo sapiens, UniProt P47871); assay: cAMP production (HTRF) in CHO cells expressing hGCGR; type: cell-based; parameters: expressed in transfected cells; settings: Table 7, peptides modified at position 20; cAMP in CHO hGCGR cells; geometric mean; read-out: hGluc-R EC50
human glucagon receptor (hGCGR), sequence (P47871 26-477): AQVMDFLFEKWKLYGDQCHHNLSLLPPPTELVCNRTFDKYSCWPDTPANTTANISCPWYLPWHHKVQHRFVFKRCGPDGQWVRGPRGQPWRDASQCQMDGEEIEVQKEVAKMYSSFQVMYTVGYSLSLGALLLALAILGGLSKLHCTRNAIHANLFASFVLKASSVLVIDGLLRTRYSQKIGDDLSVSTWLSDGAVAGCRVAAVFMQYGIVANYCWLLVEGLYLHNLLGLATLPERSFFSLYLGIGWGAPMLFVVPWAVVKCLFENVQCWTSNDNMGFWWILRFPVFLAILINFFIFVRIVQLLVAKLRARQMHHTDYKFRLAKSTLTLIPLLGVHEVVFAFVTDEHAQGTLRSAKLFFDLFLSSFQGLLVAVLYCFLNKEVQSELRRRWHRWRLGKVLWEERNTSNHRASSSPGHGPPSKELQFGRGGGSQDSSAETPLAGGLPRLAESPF
Procedure, shortened: as §1

SMILES | EC50 [1] [nM] | % Relative Potency Ratio [1] | EC50 [2] [nM]
CC[C@H](C)[C@H](NC(=O)[C@H](Cc1c[nH]c2ccccc12)NC(=O)[C@H](CCC(N)=O)NC(=O)[C@@H](NC(=O)[C@](C)(Cc1ccccc1)NC(=O)[C@H](CC(=O)O)NC(=O)[C@H](CCCCNC(=O)COCCOCCNC(=O)COCCOCCNC(=O)CC[C@H](NC(=O)CC[C@H](NC(=O)CCCCCCCCCCCCCCCCCCC(=O)O)C(=O)O)C(=O)O)NC(=O)[C@H](C)NC(=O)[C@H](C)NC(=O)[C@H](CCCNC(=N)N)NC(=O)[C@H](CO)NC(=O)[C@H](CC(=O)O)NC(=O)[C@H](CC(C)C)NC(=O)[C@](C)(Cc1ccccc1)NC(=O)[C@H](CCCCN)NC(=O)[C@H](CO)NC(=O)[C@@H](NC(=O)[C@H](CC(=O)O)NC(=O)[C@H](CO)NC(=O)[C@@H](NC(=O)[C@](C)(Cc1ccccc1)NC(=O)[C@H](CO)NC(=O)CNC(=O)[C@H](Cc1c[nH]cn1)NC(=O)C(C)(C)NC(=O)[C@@H](N)Cc1c[nH]cn1)[C@@H](C)O)C(C)C)C(C)C)C(=O)N[C@@H](C)C(=O)N[C@@H](CC(N)=O)C(=O)N[C@H](C(=O)NCC(=O)NCC(N)=O)[C@@H](C)O [Peptide 239] (H-H[Aib]HGS[αMeF]TSDVSK[αMeF]LDSRAAK([AEEA-AEEA-γGlu-γGlu-C20 diacid])D[αMeF]VQWIANTGG-NH2) | 0.105 | 13.2 | 0.705
CC[C@H](C)[C@H](NC(=O)[C@H](CO)NC(=O)[C@H](CCC(N)=O)NC(=O)[C@@H](NC(=O)[C@H](Cc1ccccc1)NC(=O)[C@H](CC(=O)O)NC(=O)[C@H](CCCCNC(=O)COCCOCCNC(=O)COCCOCCNC(=O)CC[C@H](NC(=O)CC[C@H](NC(=O)CCCCCCCCCCCCCCCCCCC(=O)O)C(=O)O)C(=O)O)NC(=O)[C@H](C)NC(=O)C(C)(C)NC(=O)[C@H](CCCNC(=N)N)NC(=O)[C@H](CO)NC(=O)[C@H](CC(=O)O)NC(=O)[C@H](CC(C)C)NC(=O)[C@](C)(Cc1ccccc1)NC(=O)[C@H](CCCCN)NC(=O)[C@H](CO)NC(=O)[C@@H](NC(=O)[C@H](CC(=O)O)NC(=O)[C@H](CO)NC(=O)[C@@H](NC(=O)[C@](C)(Cc1ccccc1)NC(=O)[C@H](CO)NC(=O)CNC(=O)[C@H](Cc1c[nH]cn1)NC(=O)C(C)(C)NC(=O)[C@@H](N)Cc1c[nH]cn1)[C@@H](C)O)C(C)C)C(C)C)C(=O)N[C@@H](C)C(=O)N[C@@H](CC(N)=O)C(=O)N[C@H](C(N)=O)[C@@H](C)O [Peptide 242] (H-H[Aib]HGS[αMeF]TSDVSK[αMeF]LDSR[Aib]AK([AEEA-AEEA-γGlu-γGlu-C20 diacid])DFVQSIANT-NH2; N-terminus assumed) | 0.249 | 9.8 | 1.23
CC[C@H](C)[C@H](NC(=O)[C@H](CO)NC(=O)[C@H](CCC(=O)O)NC(=O)[C@@H](NC(=O)[C@](C)(Cc1ccccc1)NC(=O)[C@H](CC(=O)O)NC(=O)[C@H](CCCCNC(=O)COCCOCCNC(=O)COCCOCCNC(=O)CC[C@H](NC(=O)CCCCCCCCCCCCCCCCC(=O)O)C(=O)O)NC(=O)[C@H](C)NC(=O)[C@H](C)NC(=O)[C@H](CCCNC(=N)N)NC(=O)[C@H](CO)NC(=O)[C@H](CC(=O)O)NC(=O)[C@H](CC(C)C)NC(=O)[C@](C)(Cc1ccccc1)NC(=O)[C@H](CCCCN)NC(=O)[C@H](CO)NC(=O)[C@@H](NC(=O)[C@H](CC(=O)O)NC(=O)[C@H](CO)NC(=O)[C@@H](NC(=O)[C@](C)(Cc1ccccc1)NC(=O)[C@H](CO)NC(=O)CNC(=O)[C@H](Cc1c[nH]cn1)NC(=O)C(C)(C)NC(=O)[C@@H](N)Cc1c[nH]cn1)[C@@H](C)O)C(C)C)C(C)C)C(=O)N[C@@H](C)C(=O)N[C@@H](CC(N)=O)C(=O)N[C@H](C(N)=O)[C@@H](C)O [Peptide 245] (H-H[Aib]HGS[αMeF]TSDVSK[αMeF]LDSRAAK([AEEA-AEEA-γGlu-C18 diacid])D[αMeF]VESIANT-NH2) | 0.11 | 1.1 | 0.0627

More lines, in order of falling EC50 [1], values ahead:

EC50 [1] [nM] | % Relative Potency Ratio [1] | EC50 [2] [nM] | SMILES
0.143 | 5.8 | 0.42 | CC[C@H](C)[C@H](NC(=O)[C@H](CO)NC(=O)[C@H](CCC(N)=O)NC(=O)[C@@H](NC(=O)[C@](C)(Cc1ccccc1)NC(=O)[C@H](CC(=O)O)NC(=O)[C@H](CCCCNC(=O)COCCOCCNC(=O)COCCOCCNC(=O)CC[C@H](NC(=O)CC[C@H](NC(=O)CCCCCCCCCCCCCCCCCCC(=O)O)C(=O)O)C(=O)O)NC(=O)[C@H](C)NC(=O)[C@H](C)NC(=O)[C@H](CCCNC(=N)N)NC(=O)[C@H](CO)NC(=O)[C@H](CC(=O)O)NC(=O)[C@H](CC(C)C)NC(=O)[C@](C)(Cc1ccccc1)NC(=O)[C@H](CCCCN)NC(=O)[C@H](CO)NC(=O)[C@@H](NC(=O)[C@H](CC(=O)O)NC(=O)[C@H](CO)NC(=O)[C@@H](NC(=O)[C@](C)(Cc1ccccc1)NC(=O)[C@H](CO)NC(=O)CNC(=O)[C@H](Cc1c[nH]cn1)NC(=O)C(C)(C)NC(=O)[C@@H](N)Cc1c[nH]cn1)[C@@H](C)O)C(C)C)C(C)C)C(=O)N[C@@H](C)C(=O)N[C@@H](CC(N)=O)C(=O)N[C@H](C(N)=O)[C@@H](C)O [Peptide 244] (H-H[Aib]HGS[αMeF]TSDVSK[αMeF]LDSRAAK([AEEA-AEEA-γGlu-γGlu-C20 diacid])D[αMeF]VQSIANT-NH2)
0.0593 | 1.7 | 0.0506 | CC[C@H](C)[C@H](NC(=O)[C@H](CO)NC(=O)[C@H](CCC(N)=O)NC(=O)[C@@H](NC(=O)[C@](C)(Cc1ccccc1)NC(=O)[C@H](CC(=O)O)NC(=O)[C@H](CCCCNC(=O)COCCOCCNC(=O)COCCOCCNC(=O)CC[C@H](NC(=O)CCCCCCCCCCCCCCCCC(=O)O)C(=O)O)NC(=O)[C@H](C)NC(=O)[C@H](C)NC(=O)[C@H](CCCNC(=N)N)NC(=O)[C@H](CO)NC(=O)[C@H](CC(=O)O)NC(=O)[C@H](CC(C)C)NC(=O)[C@](C)(Cc1ccccc1)NC(=O)[C@H](CCCCN)NC(=O)[C@H](CO)NC(=O)[C@@H](NC(=O)[C@H](CC(=O)O)NC(=O)[C@H](CO)NC(=O)[C@@H](NC(=O)[C@](C)(Cc1ccccc1)NC(=O)[C@H](CO)NC(=O)CNC(=O)[C@H](Cc1c[nH]cn1)NC(=O)C(C)(C)NC(=O)[C@@H](N)Cc1c[nH]cn1)[C@@H](C)O)C(C)C)C(C)C)C(=O)N[C@@H](C)C(=O)N[C@@H](CC(N)=O)C(=O)N[C@H](C(N)=O)[C@@H](C)O [Peptide 243] (H-H[Aib]HGS[αMeF]TSDVSK[αMeF]LDSRAAK([AEEA-AEEA-γGlu-C18 diacid])D[αMeF]VQSIANT-NH2)
0.0571 | 11.5 | 0.332 | CC[C@H](C)[C@H](NC(=O)[C@H](Cc1c[nH]c2ccccc12)NC(=O)[C@H](CCC(N)=O)NC(=O)[C@@H](NC(=O)[C@](C)(Cc1ccccc1)NC(=O)[C@H](CC(=O)O)NC(=O)[C@H](CCCCNC(=O)COCCOCCNC(=O)COCCOCCNC(=O)CC[C@H](NC(=O)CC[C@H](NC(=O)CCCCCCCCCCCCCCCCC(=O)O)C(=O)O)C(=O)O)NC(=O)[C@H](C)NC(=O)[C@H](C)NC(=O)[C@H](CCCNC(=N)N)NC(=O)[C@H](CO)NC(=O)[C@H](CC(=O)O)NC(=O)[C@H](CC(C)C)NC(=O)[C@](C)(Cc1ccccc1)NC(=O)[C@H](CCCCN)NC(=O)[C@H](CO)NC(=O)[C@@H](NC(=O)[C@H](CC(=O)O)NC(=O)[C@H](CO)NC(=O)[C@@H](NC(=O)[C@](C)(Cc1ccccc1)NC(=O)[C@H](CO)NC(=O)CNC(=O)[C@H](Cc1c[nH]cn1)NC(=O)C(C)(C)NC(=O)[C@@H](N)Cc1c[nH]cn1)[C@@H](C)O)C(C)C)C(C)C)C(=O)N[C@@H](C)C(=O)N[C@@H](CC(N)=O)C(=O)N[C@H](C(=O)NCC(N)=O)[C@@H](C)O [Peptide 240] (H-H[Aib]HGS[αMeF]TSDVSK[αMeF]LDSRAAK([AEEA-AEEA-γGlu-γGlu-C18 diacid])D[αMeF]VQWIANTG-NH2)
0.0358 | 9.7 | 0.175 | CC[C@H](C)[C@H](NC(=O)[C@H](Cc1c[nH]c2ccccc12)NC(=O)[C@H](CCC(N)=O)NC(=O)[C@@H](NC(=O)[C@](C)(Cc1ccccc1)NC(=O)[C@H](CC(=O)O)NC(=O)[C@H](CCCCNC(=O)COCCOCCNC(=O)COCCOCCNC(=O)CC[C@H](NC(=O)CC[C@H](NC(=O)CCCCCCCCCCCCCCCCC(=O)O)C(=O)O)C(=O)O)NC(=O)[C@H](C)NC(=O)[C@H](C)NC(=O)[C@H](CCCNC(=N)N)NC(=O)[C@H](CO)NC(=O)[C@H](CC(=O)O)NC(=O)[C@H](CC(C)C)NC(=O)[C@](C)(Cc1ccccc1)NC(=O)[C@H](CCCCN)NC(=O)[C@H](CO)NC(=O)[C@@H](NC(=O)[C@H](CC(=O)O)NC(=O)[C@H](CO)NC(=O)[C@@H](NC(=O)[C@](C)(Cc1ccccc1)NC(=O)[C@H](CO)NC(=O)CNC(=O)[C@H](Cc1c[nH]cn1)NC(=O)C(C)(C)NC(=O)[C@@H](N)Cc1c[nH]cn1)[C@@H](C)O)C(C)C)C(C)C)C(=O)N[C@@H](C)C(=O)N[C@@H](CC(N)=O)C(=O)N[C@H](C(=O)NCC(=O)NCC(N)=O)[C@@H](C)O [Peptide 241] (H-H[Aib]HGS[αMeF]TSDVSK[αMeF]LDSRAAK([AEEA-AEEA-γGlu-γGlu-C18 diacid])D[αMeF]VQWIANTGG-NH2; N-terminus assumed)
